Data published in patent US6361805B1, “Method of preparation and composition of a water soluble extract of the plant species uncaria for enhancing immune, anti-inflammatory, anti-tumor and DNA repair processes of warm blooded animals” (priority 1997, dated 2002).

Tested on: HL-60 cells
Test: Induction of apoptosis, scored by phase contrast morphological criteria
Type: cell-based, human
Details: HL-60, 100 μM hydrogen peroxide positive control, 0-72 hours
Method: FIG. 2. Time course of apoptosis in HL-60 cells induced by C-MED-100 extract (Example 1) as compared to negative (no treatment) or positive (100 μM H2O2 exposure) controls.
For the purpose of evaluating apoptosis in vitro, human leukemic HL-60 cells were cultured at a density of 0.5×10^6 cells per milliliter in 10% calf serum supplemented RPMI medium in a 5% CO2 atmosphere at 37° C. for 48 hours. The cells were harvested by centrifugation and resuspended in a fresh medium at a concentration of 1-2×10^6 cells per milliliter in 15 milliliter Falcon test tubes for bioassay purposes. Next the cells were exposed to either 100 μM hydrogen peroxide as a positive control or 397 μg per milliliter C-Med-100 extract prepared according to Example 1 or no exposure for 0-72 hours at 37° C. Samples of cells were taken from the cultures at the time periods indicated in FIG. 2 and the % apoptosis in the total cells counted were analyzed and scored by phase contrast morphological criteria.

## OO [Hydrogen peroxide]
  apoptotic cells over time: massive cell death by apoptosis within 24 hours
